# From patent US6020340A, “Imidazopyridines” (Byk Gulden Lomberg Chemische Fabrik GmbH, priority 1996, dated 2000)
# Test system: PDE IV
# Test: Inhibition of PDE IV activity (method of Bauer and Schwabe, adapted to microtiter plates)
# Assay type: biochemical
row,Compound,"Inhibition of PDE IV activity, -log IC50"
1,"COc1ccc(-c2nc3ncccc3[nH]2)c2c1OC1(C=C2)CCCC1 [Compound 3, 2-[8-Methoxy-2,2-tetramethylene-1[2H]chromen-5-yl]imidazo[4,5-b]pyridine]",5.83
2,"CC(C)c1cc2c(-c3nc4cnccc4[nH]3)ccc(OC(F)F)c2o1 [Compound 6, 2-[7-Difluoromethoxy-2-(1-methylethyl)benzofuran-4-yl]imidazo[4,5-c]pyridine]",8.38
3,"COc1ccc(-c2nc3cnccc3[nH]2)c2c1OC1(C=C2)CCCC1 [Compound 5, 2-[8-Methoxy-2,2-tetramethylene-1[2H]chromen-5-yl]imidazo[4,5-c]pyridine]",6.76
4,"CC(C)c1cc2c(-c3nc4ncccc4[nH]3)ccc(OC(F)F)c2o1 [Compound 2, 2-[7-Difluoromethoxy-2(1-methylethyl)benzofuran-4yl]imidazo[4,5-b]pyridine]",8.14
5,COc1ccc(-c2nc3cnccc3[nH]2)c2cc(C(C)C)oc12 [Compound 7],8.09
6,"COc1ccc(-c2nc3cnccc3[nH]2)c2cc(C3CCCC3)oc12 [Compound 4, 2-(2Cyclopentyl-7-methoxy-benzofuran-4-yl)imidazo[4,5-c]pyridine]",7.74
7,"COc1ccc(-c2nc3ncccc3[nH]2)c2cc(C(C)C)oc12 [Compound 1, 2-[7-Methoxy-2-(1-methylethyl)benzofuran-4-yl]imidazo[4,5-b]pyridine]",7.41
